Data from patent US8614242B2, “1-(heterocyclic carbonyl)-2-substituted pyrrolidines” (Bayer Intellectual Property GmbH, priority 2010, dated 2013).

Legend:
[1] = system: Sphaerotheca fuliginea; assay: In vivo preventive test on Sphaerotheca fuliginea (cucumber); settings: 500 ppm of active ingredient, evaluated 7 days after inoculation
[2] = system: Fusarium nivale (var. majus); assay: In vivo preventive test on Fusarium nivale (wheat); settings: 500 ppm of active ingredient, evaluated 5 days after inoculation
From the text: After the spray coating has been dried, the plants are slightly injured by using a sandblast and afterwards they are sprayed with a conidia suspension of Fusarium nivale (var. majus).

[3] = system: Rhizoctonia solani; assay: In vivo protective test on Rhizoctonia solani (rice); settings: 250 ppm of active ingredient, evaluated 4 days after inoculation
From the text: In Vivo Protective Test on Rhizoctonia Solani (Rice)

[4] = logP by HPLC on reversed-phase column (EEC Directive 79/831 Annex V.A8); assay type: physicochemical; settings: HPLC on reversed-phase column (C 18), 40° C., 0.1% aqueous formic acid and acetonitrile, linear gradient 10% to 90% acetonitrile
Procedure: In table 1, the logP values were determined in accordance with EEC Directive 79/831 Annex V.A8 by HPLC (High Performance Liquid Chromatography) on a reversed-phase column (C 18), using the method described below: Temperature: 40° C.; Mobile phases: 0.1% aqueous formic acid and acetonitrile; linear gradient from 10% acetonitrile to 90% acetonitrile. Calibration was carried out using unbranched alkan-2-ones (comprising 3 to 16 carbon atoms) with known logP values (determination of the logP values by the retention times using linear interpolation between two successive alkanones). lambda-max-values were determined using UV-spectra from 200 nm to 400 nm and the peak values of the chromatographic signals.

[5] = system: Puccinia triticina; assay: In vivo preventive test on Puccinia triticina (wheat); settings: 500 ppm of active ingredient, evaluated 8 days after inoculation
Procedure: In Vivo Preventive Test on Puccinia Triticina (Wheat)
Solvent: 49 parts by weight of N,N-dimethylacetamide
Emulsifier: 1 part by weight of alkylaryl polyglycol ether
After the spray coating has been dried, the plants are sprayed with a spore suspension of Puccinia triticina.
The test is evaluated 8 days after the inoculation.

[6] = system: Septoria tritici; assay: In vivo preventive test on Septoria tritici (wheat); settings: 500 ppm of active ingredient, evaluated 21 days after inoculation
From the text: After the spray coating has been dried, the plants are sprayed with a spore suspension of Septoria tritici.

[7] = system: Pyrenophora teres; assay: In vivo preventive test on Pyrenophora teres (barley); settings: 500 ppm of active ingredient, evaluated 7-9 days after inoculation
Procedure: The plants remain for 48 hours in an incubation cabinet at 22° C. and a relative atmospheric humidity of 100%.

[8] = system: Alternaria solani; assay: In vivo preventive test on Alternaria solani (tomato); settings: 500 ppm of active ingredient, evaluated 7 days after inoculation
Procedure: The plants remain for one day in an incubation cabinet at approximately 22° C. and a relative atmospheric humidity of 100%. Then the plants are placed in an incubation cabinet at approximately 20° C. and a relative atmospheric humidity of 96%.

[9] = system: Pyricularia oryzae; assay type: in vivo; settings: rice, protective, 250 ppm of active ingredient, evaluated 5 days after inoculation
[10] = system: Venturia inaequalis; assay: In vivo preventive test on Venturia inaequalis (apple scab); settings: 100 ppm of active ingredient, evaluated 10 days after inoculation
Procedure: After the spray coating has dried on, the plants are inoculated with an aqueous conidia suspension of the causal agent of apple scab (Venturia inaequalis) and then remain for 1 day in an incubation cabinet at approximately 20° C. and a relative atmospheric humidity of 100%.

[11] = system: Cochliobolus miyabeanus; settings: rice, protective, 250 ppm of active ingredient, evaluated 4 days after inoculation
Procedure: In Vivo Protective Test on Cochliobolus Miyabeanus (Rice)
Solvent: 28.5 parts by weight of acetone
Emulsifier: 1.5 part by weight of polyoxyethylene alkyl phenyl ether
One day after spraying, the plants are inoculated with an aqueous spore suspension of the causal agent of rice brown spot (Cochliobolus miyabeanus). The plants are then placed in an incubator at approximately 25° C. and a relative atmospheric humidity of approximately 100% for 1 day.
The test is evaluated 4 days after the inoculation.

[12] = system: Phakopsora pachyrhizi; assay: In vivo protective test on Phakopsora pachyrhizi (soybeans); settings: 250 ppm of active ingredient, evaluated 11 days after inoculation
Procedure: In Vivo Protective Test on Phakopsora Pachyrhizi (Soybeans)
The test is evaluated 11 days after the inoculation.

[13] = system: Leptosphaeria nodorum; assay: In vivo preventive test on Leptosphaeria nodorum (wheat); settings: 500 ppm of active ingredient, evaluated 8 days after inoculation
From the text: After the spray coating has been dried, the plants are sprayed with a spore suspension of Leptosphaeria nodorum.

[14] = system: Blumeria graminis f.sp. hordei; assay: In vivo preventive test on Blumeria graminis (barley); settings: 500 ppm of active ingredient, evaluated 7 days after inoculation
From the text: After the spray coating has been dried, the plants are dusted with spores of Blumeria graminis f.sp. hordei.

## Cc1cc(C)c(CC2CCCN2C(=O)c2c(C(F)F)nn(C)c2F)cc1C (racemic) [Example 66]
[1]
  Efficacy: 88%
[2]
  Efficacy: 100%
[3]
  Efficacy: 80%
[4]
  logP: 3.81
[5]
  Efficacy: 100%
[6]
  Efficacy: 90%
[7]
  Efficacy: 100%
[8]
  Efficacy: 100%
[9]
  Efficacy: 97%
[10]
  Efficacy: 100%
[11]
  Efficacy: 98%

## Cn1nc(C(F)F)c(C(=O)N2CCCC2c2cccc(C(F)(F)F)c2)c1F (centres unmarked) [Example 17]
[1]
  Efficacy: 95%
[4]
  logP: 3.06
[7]
  Efficacy: 100%
[8]
  Efficacy: 100%
[9]
  Efficacy: 92%
[11]
  Efficacy: 98%

## CCC(c1ccccc1)C1CCCN1C(=O)c1c(C(F)F)nn(C)c1F (centres unmarked) [Example 53]
[1]
  Efficacy: 93%
[12]
  protection (efficacy): 85%
[2]
  Efficacy: 100%
[4]
  logP: 3.48
[5]
  Efficacy: 88%
[6]
  Efficacy: 100%
[7]
  Efficacy: 100%
[8]
  Efficacy: 94%
[13]
  Efficacy: 100%
[10]
  Efficacy: 100%
[14]
  Efficacy: 100%
[11]
  Efficacy: 95%

## Cn1nc(C(F)F)c(C(=O)N2CCC[C@H]2COc2c(Cl)cc(Cl)cc2Cl)c1F [Example 82]
[1]
  Efficacy: 100%
[2]
  Efficacy: 100%
[3]
  Efficacy: 100%
[4]
  logP: 4.24
[5]
  Efficacy: 100%
[6]
  Efficacy: 86%
[9]
  Efficacy: 98%
[14]
  Efficacy: 100%
[11]
  Efficacy: 93%
